Here are results for 5 compounds from ChEMBL document CHEMBL1152976, “Dracotanosides A-D, spermidine glycosides from Dracocephalum tanguticum: structure and amide rotational barrier” (J Nat Prod, 2009).

As usually defined, the IC50 is the concentration at which inhibition is half-maximal. A high value points to weaker potency.

A short description of test [1]: Cytotoxicity against human drug-resistant K562/A02 cells after 48 hrs by MTT assay. In kind it is functional, cell-based. To be noted: K562/A02, 48 h. Background: Formazan colour is commonly taken as a measure of viable cells.
The test system of a further test is K562. In words: Cytotoxicity against human drug-sensitive K562 cells after 48 hrs by MTT assay. To be noted: K562, 48 h. In kind it is functional, cell-based.

Regarding `O=C1CCN[C@@H](c2ccc(O)cc2)CCCN(C(=O)/C=C\c2ccccc2)CCCN1`, the IC50 (in test [1]; with K562) was greater than 200 µM in each case.
For the compound `C[C@H]1O[C@@H](Oc2ccc([C@H]3CCCN(C(=O)/C=C/c4ccccc4)CCCNC(=O)CCN3)cc2)[C@@H](O)[C@@H](O)[C@@H]1O` [DRACOTANOSIDE D], the IC50 (in test [1]; with K562) was greater than 200 µM in each case.
As for `C[C@H]1O[C@@H](Oc2ccc([C@H]3CCCN(C(=O)/C=C\c4ccccc4)CCCNC(=O)CCN3)cc2)[C@@H](O)[C@@H](O)[C@@H]1O` [DRACOTANOSIDE C], the IC50 (in test [1]; in the test with K562) was greater than 200 µM in each case.
In the case of `C[C@@H]1O[C@@H](Oc2ccc([C@H]3CCCN(C(=O)/C=C\c4ccccc4)CCCNC(=O)CCN3)cc2)[C@H](O[C@@H]2O[C@H](COC(=O)c3ccccc3)[C@@H](O)[C@H](O)[C@H]2O)[C@H](O)[C@H]1O` [DRACOTANOSIDE A], the IC50 (in test [1]; with K562) was greater than 200 µM throughout.
`C[C@@H]1O[C@@H](Oc2ccc([C@H]3CCCN(C(=O)/C=C/c4ccccc4)CCCNC(=O)CCN3)cc2)[C@H](O[C@@H]2O[C@H](COC(=O)c3ccccc3)[C@@H](O)[C@H](O)[C@H]2O)[C@H](O)[C@H]1O` [DRACOTANOSIDE B]: the half-maximal inhibitory concentration (IC50) (in test [1]; in the test on K562) was greater than 200 µM each time.
